Source: patent US9988366B2, “Pesticidally active heterocyclic derivatives with sulphur containing substituents” (Syngenta Participations AG, priority 2014, dated 2018)

Key:
Format in all cases: in vivo
[1] = test system: Bemisia tabaci (cotton white fly); experiment: Example B7: Bemisia tabaci adulticide contact activity, preventative (cotton leaf discs); settings: foliar, 168 h, adult white flies on cotton leaf discs, 7 DAT
Experimental: Example B7: Activity Against Bemisia tabaci (Cotton White Fly)
(Adulticide Contact Activity, Preventative), Adult
Cotton leaf discs were placed on agar in a 24-well microtiter plate and sprayed with test solutions. After drying, the leaf discs were infested with adult white flies. After an incubation period of 7 DAT, samples were checked for mortality and special effects (e.g. phytotoxicity).

[2] = test system: Myzus persicae (green peach aphid); experiment: Example B5: Myzus persicae feeding/residual contact activity, preventive, mixed population (sunflower leaf discs); settings: foliar, 144 h, mixed population on sunflower leaf discs, 6 DAT
Experimental: Example B5: Activity Against Myzus persicae (Green Peach Aphid)
(Feeding/Residual Contact Activity, Preventive), Mixed Population
Sunflower leaf discs were placed on agar in a 24-well microtiter plate and sprayed with test solutions. After drying, the leaf discs were infested with an aphid population of mixed ages. After an incubation period of 6 DAT, samples were checked for mortality and special effects (e.g. phytotoxicity).

[3] = test system: Plutella xylostella (diamond back moth); experiment: Example B3: Plutella xylostella larvicide, feeding/residual contact activity, preventive (artificial diet); settings: 120 h, L2 larvae on artificial diet, 5 days, read-out: activity (larval mortality, antifeedant and growth regulation)
Experimental: Example B3: Activity Against Plutella xylostella (Diamond Back Moth)
(§1) (Larvicide, Feeding/Residual Contact Activity, Preventive)
24-well microtiter plate (MTP) with artificial diet was treated with test solutions by pipetting. After drying, the MTPs were infested with L2 larvae (10-15 per well). After an incubation period of 5 days, samples were checked for larval mortality, antifeedant and growth regulation.

[4] = test system: Spodoptera littoralis (Egyptian cotton leaf worm); experiment: Example B1: Spodoptera littoralis larvicide, feeding/residual contact activity, preventive (cotton leaf discs); settings: foliar, 72 h, L1 larvae on sprayed cotton leaf discs, 3 days after treatment, read-out: effect in at least one of the three categories (mortality, anti-feedancy, or growth inhibition)
From the text: Example B1: Activity Against Spodoptera littoralis (Egyptian Cotton Leaf Worm)
as §1
Cotton leaf discs were placed on agar in a 24-well microtiter plate and sprayed with test solutions. After drying, the leaf discs were infested with five L1 larvae. The samples were checked for mortality, repellent effect, feeding behaviour, and growth regulation 3 days after treatment (DAT). Control of Spodoptera littoralis by a test sample is when at least one of mortality, anti-feedant effect, and growth inhibition is higher than an untreated sample.

[5] = test system: Diabrotica balteata (corn root worm); experiment: Example B4: Diabrotica balteata larvae L2 on maize sprouts, feeding/contact, preventative; settings: 120 h, 5 days, read-out: activity (larval mortality and growth regulation)
Experimental: Example B4: Activity Against Diabrotica balteata (Corn Root Worm)
(Larvae L2 on Maize Sprouts, Feeding/Contact, Preventative)
Maize sprouts, placed on an agar layer in 24 well micro titer plates were treated with test solutions by spraying. After drying, the MTPs were infested with L2 larvae (6-10 per well). After an incubation period of 5 days, samples were checked for larval mortality and growth regulation.

[6] = test system: Spodoptera littoralis (Egyptian cotton leaf worm); experiment: Example B2: Spodoptera littoralis systemic activity (lettuce on agar); settings: 120 h, systemic via lettuce roots, 5 days after infestation, read-out: effect in at least one of the three categories (mortality, anti-feedancy, or growth inhibition)
From the text: Example B2: Activity Against Spodoptera littoralis (Egyptian Cotton Leaf Worm)
Test compounds were applied by pipette into 24 well plates and mixed with agar. Lettuce seeds were placed on the agar and the multi well plate is closed by another plate which contains also agar. After 7 days the roots have absorbed the compound and the lettuce has grown into the lid plate. The lettuce leaves were now cut off into the lid plate. Spodoptera eggs were pipetted through a plastic stencil on a humid gel blotting paper and the plate closed with it. The samples are checked for mortality, repellent effect, feeding behavior, and growth regulation 5 days after infestation.

[7] = test system: Tetranychus urticae (two-spotted spider mite); experiment: Example B10: Tetranychus urticae, bean leaf disc spray test; settings: foliar, 192 h
Experimental: Example B10: Activity Against Tetranychus urticae (Two-Spotted Spider Mite)
Bean leaf discs on agar in 24-well microtiter plates were sprayed with aqueous test solutions prepared from 10′000 ppm DMSO stock solutions. After drying the leaf discs were infested with a mite population of mixed ages. The samples were assessed for mortality on mixed population (mobile stages) 8 days after infestation.

[8] = test system: Myzus persicae (green peach aphid); experiment: Example B6: Myzus persicae feeding activity sachet test, mixed population; settings: 120 h, sucrose solution, 5 days after infestation
From the text: Example B6: Activity Against Myzus persicae (Green Peach Aphid)
(Feeding Activity Sachet Test), Mixed Population
Test compounds were applied by pipette into 24 well plates and mixed with Sucrose solution. The plates were closed with a stretched Parafilm. A plastic stencil with 24 holes is placed onto the plate and infested pea seedlings were placed directly on the Parafilm. The infested plate is closed with a gel blotting paper and another plastic stencil and then turned upside down. 5 days after infestation the samples were checked on mortality. Application rate: 12.5 ppm.

[9] = test system: Myzus persicae (green peach aphid); experiment: Example B9: Myzus persicae systemic/feeding activity, curative, mixed population (pea seedling roots); settings: 144 h, pea seedling roots in test solution, 6 days after introduction
From the text: Example B9: Activity Against Myzus persicae (Green Peach Aphid)
(Systemic/Feeding Activity, Curative), Mixed Population
Roots of pea seedlings, infested with an aphid population of mixed ages, were placed directly in the test solutions. 6 days after introduction, samples were checked for mortality and special effects on the plant.

[10] = test system: Euschistus heros (neotropical brown stink bug); experiment: Example B8: Euschistus heros, soybean leaf spray test; settings: 120 h, N-2 nymphs on soybean leaf, 5 days after infestation
Experimental: Example B8: Activity Against Euschistus heros (Neotropical Brown Stink Bug)
Soybean leaf on agar in 24-well microtiter plates were sprayed with aqueous test solutions prepared from 10,000 ppm DMSO stock solutions. After drying the leaf were infested with N-2 nymphs. The samples were assessed for mortality 5 days after infestation.

Compound | mortality at 400 ppm [1] [%] | mortality at 400 ppm [2] [%] | mortality at 400 ppm [3] [%] | percent control (mortality, anti-feedancy or growth inhibition) at 400 ppm [4] [%] | mortality at 400 ppm [5] [%] | percent control (mortality, anti-feedancy or growth inhibition) at 12.5 ppm [6] [%] | mortality at 400 ppm [7] [%] | mortality at 12.5 ppm [8] [%] | mortality at 24 ppm [9] [%] | mortality at 400 ppm [10] [%]
CCS(=O)(=O)c1cc(C(F)(F)F)ccc1-c1ncc(-c2ccc(C(F)(F)F)cc2)n1C [Compound P9] | > 80 | > 80 | > 80 | ≥ 80 | > 80 | ≥ 80 | – | – | – | –
CCS(=O)(=O)c1cc(C(F)(F)F)cnc1-c1ncc(-c2cc(C(F)(F)F)ccn2)n1C [Compound P3] | – | > 80 | – | ≥ 80 | > 80 | ≥ 80 | ≥ 80 | – | – | –
CCS(=O)(=O)c1cc(C(F)(F)F)cnc1-c1ncc(-c2ccc(S(=O)(=O)C(F)(F)F)cc2)n1C [Compound P12] | – | – | > 80 | ≥ 80 | > 80 | ≥ 80 | – | – | – | –
CCS(=O)(=O)c1cc(C(F)(F)F)cnc1-c1ncc(-c2ccnc(F)c2)n1C [Compound P39] | – | – | > 80 | ≥ 80 | > 80 | – | – | ≥ 80 | ≥ 80 | –
CCS(=O)(=O)c1cc(C(F)(F)F)cnc1-c1ncc(-c2ccnc(C(F)(F)F)c2)n1C [Compound P6] | > 80 | > 80 | > 80 | ≥ 80 | > 80 | – | – | – | – | –
CCS(=O)(=O)c1cc(C(F)(F)F)ccc1-c1ncc(-c2ccc(C(F)(F)F)nc2)n1C [Compound P10] | > 80 | > 80 | > 80 | ≥ 80 | > 80 | ≥ 80 | – | – | – | –
CCS(=O)(=O)c1cc(C(F)(F)F)cnc1-c1ncc(-c2ccc(F)nc2)n1C [Compound P54] | – | – | > 80 | ≥ 80 | > 80 | – | – | ≥ 80 | ≥ 80 | –
CCS(=O)(=O)c1cc(C(F)(F)F)cnc1-c1ncc(-c2ccc(C(F)(F)F)nc2)n1C [Compound P4] | > 80 | > 80 | > 80 | ≥ 80 | > 80 | ≥ 80 | – | – | ≥ 80 | > 80
CCS(=O)(=O)c1cc(C(F)(F)F)cnc1-c1ncc(-c2ccc(SC(F)(F)F)cc2)n1C [Compound P15] | > 80 | > 80 | > 80 | ≥ 80 | > 80 | ≥ 80 | – | – | – | > 80
CCS(=O)(=O)c1cc(C(F)(F)F)cnc1-c1ncc(-c2cnc(C(F)(F)F)nc2)n1C [Compound P50] | – | – | > 80 | ≥ 80 | > 80 | – | – | ≥ 80 | ≥ 80 | –
